Measurements as given in patent US20200054651A1, “COMPOSITIONS AND METHODS FOR MODULATING PPP2R1A” (The Regents of the University of California, priority 2017, published 2020).

Assays:
[1] = test system: MCF 10A non-transformed mammary epithelial cells; experiment: MCF 10A cell proliferation (toxicity to non-transformed cells); type: cell-based; conditions: 48 h after treatment, Hoescht staining
HCC38 cells = experiment: HCC38 cell proliferation; type: cell-based; conditions: 10 μM, 48 h
pure human KEAP1 = target: T1, pure human KEAP1 (Homo sapiens, UniProt Q14145); experiment: Gel-based ABPP, competition against IAyne labeling; type: binding; conditions: 10 μM, 30 min at 37° C.
T1 construct: purchased Origene
Experimental: (§1) Gel-based ABPP methods were performed using the methods described in “Chem Biol 22(10), 1394-1405 (2015)” by Medina-Cleghorn D., et al. Recombinant pure human proteins were purchased from Origene. Pure proteins were pre-treated with DMSO, Withaferin A, or acrylamide or chloroacetamide compounds (e.g., DKM 2-90 or JNS 1-40) for 30 minutes at 37° C. in an incubation volume of PBS (50 μL), and were subsequently treated with IAyne (10 μM final concentration) for 30 minutes at room temperature. CuAAC was performed to append rhodamine-azide onto IAyne probe-labeled proteins. The samples were separated by SDS/PAGE and scanned using a ChemiDoc MP. Inhibition of target labeling was assessed by densitometry using ImageStudio Light software.

pure human vimentin = target: T2, pure human vimentin (Homo sapiens, UniProt P08670); experiment: Gel-based ABPP, competition against IAyne labeling; type: binding; conditions: 10 μM, 30 min at 37° C.
T2 construct: purchased Origene
Experimental: as §1

T2 sequence (P08670 whole entry): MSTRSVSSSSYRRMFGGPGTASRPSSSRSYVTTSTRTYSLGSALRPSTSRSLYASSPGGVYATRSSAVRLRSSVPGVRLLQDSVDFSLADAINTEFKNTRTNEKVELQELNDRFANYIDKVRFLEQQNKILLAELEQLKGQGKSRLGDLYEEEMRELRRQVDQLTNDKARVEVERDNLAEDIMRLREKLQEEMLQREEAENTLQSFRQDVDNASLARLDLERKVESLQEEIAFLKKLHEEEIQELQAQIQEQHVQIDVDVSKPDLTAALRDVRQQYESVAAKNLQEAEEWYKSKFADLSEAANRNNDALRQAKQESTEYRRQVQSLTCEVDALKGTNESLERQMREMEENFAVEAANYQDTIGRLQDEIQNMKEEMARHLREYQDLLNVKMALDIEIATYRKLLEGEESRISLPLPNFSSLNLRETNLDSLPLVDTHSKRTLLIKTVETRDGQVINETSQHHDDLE
T1 sequence (Q14145 whole entry): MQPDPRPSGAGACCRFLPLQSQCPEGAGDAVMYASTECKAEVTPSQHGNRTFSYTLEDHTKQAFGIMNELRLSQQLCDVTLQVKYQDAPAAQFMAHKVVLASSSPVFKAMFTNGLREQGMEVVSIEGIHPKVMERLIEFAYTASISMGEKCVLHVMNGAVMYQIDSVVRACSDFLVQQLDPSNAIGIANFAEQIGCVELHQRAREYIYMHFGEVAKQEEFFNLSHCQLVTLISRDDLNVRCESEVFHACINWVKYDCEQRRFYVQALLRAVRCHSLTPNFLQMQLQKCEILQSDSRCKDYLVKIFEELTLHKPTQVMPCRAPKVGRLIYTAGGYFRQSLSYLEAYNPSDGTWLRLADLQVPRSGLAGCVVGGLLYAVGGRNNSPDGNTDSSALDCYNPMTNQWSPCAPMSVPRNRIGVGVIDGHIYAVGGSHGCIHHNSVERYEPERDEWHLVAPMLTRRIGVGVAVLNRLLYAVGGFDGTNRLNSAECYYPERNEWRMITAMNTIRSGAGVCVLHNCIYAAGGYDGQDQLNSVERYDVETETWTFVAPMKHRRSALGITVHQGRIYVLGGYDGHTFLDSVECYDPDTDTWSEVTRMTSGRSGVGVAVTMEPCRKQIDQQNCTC

| SMILES | toxicity to MCF 10A cells (cell proliferation) [1] | cell proliferation (HCC38 cells) | competition against IAyne labeling of pure human KEAP1 (pure human KEAP1) | competition against IAyne labeling of pure human vimentin (pure human vimentin) |
| --- | --- | --- | --- | --- |
| O=C(CCl)Nc1ccc2c(c1)OCCO2 [DKM 2-90, 2-Chloro-N-(2,3-dihydrobenzo[β][1,4]dioxin-6-yl)acetamide] | less toxic than DKM 2-91 |  |  |  |
| CC1=C(CO)C(=O)O[C@@H]([C@@H](C)[C@H]2CC[C@H]3[C@@H]4C[C@H]5O[C@]56[C@@H](O)C=CC(=O)[C@]6(C)[C@H]4CC[C@]23C)C1 [withaferin A, reference compound] |  | impairs | no competition | lack of competition |
